Laboratory results as given in patent publication US4563472A, “Iodoallyl and iodopropargyl substituted tetrazoles and anti-microbial compositions thereof” (Meiji Seika Kaisha, Ltd., priority 1982, dated 1986).
In brackets after ≈: the same amount, converted by molar mass. Where two headings read alike, the source gives them in different places.

Legend:
[1] = tested on: Trichophyton interdigitale; test: Antifungal Activity (in Medicinal Field), MIC; type: cell-based; details: read-out: Minimal Inhibitory Conc. (MIC)
[2] = tested on: Rhizopus nigricans S.N. 32; test: Antifungal Activity (in Industrial Field), MIC; type: cell-based; details: Rhizopus stolonifer, read-out: Minimal Inhibitory Conc. (MIC)
[3] = tested on: Aspergillus fumigatus Saito; test: Antifungal Activity (in Medicinal Field), MIC; type: cell-based; details: read-out: Minimal Inhibitory Conc. (MIC)
Candida alubicans GA-24 = test: Antifungal Activity (in Medicinal Field), MIC; type: cell-based
[4] = tested on: Cryptococcus neoformans Cr-1; test: Antifungal Activity (in Medicinal Field), MIC; type: cell-based; details: CR1, read-out: Minimal Inhibitory Conc. (MIC)
[5] = tested on: Penicillium luteum ATCC 9644; test: Antifungal Activity (in Industrial Field), MIC; type: cell-based; details: Ascospirella lutea, ATCC9644, read-out: Minimal Inhibitory Conc. (MIC)
[6] = tested on: Aspergillus flavus ATCC 6275; test: Antifungal Activity (in Industrial Field), MIC; type: cell-based; details: ATCC6275, read-out: Minimal Inhibitory Conc. (MIC)
[7] = tested on: Trichoderma T-1 ATCC 9645; test: Antifungal Activity (in Industrial Field), MIC; type: cell-based; details: ATCC9645, read-out: Minimal Inhibitory Conc. (MIC)
[8] = tested on: Cladosporium herbarum IAM F-517; test: Antifungal Activity (in Industrial Field), MIC; type: cell-based; details: IAMF517, read-out: Minimal Inhibitory Conc. (MIC)
[9] = tested on: Chaetomium globosum ATCC 6205; test: Antifungal Activity (in Industrial Field), MIC; type: cell-based; details: ATCC6205, read-out: Minimal Inhibitory Conc. (MIC)
[10] = tested on: Aspergillus fumigatus IAM 2621; test: Antifungal Activity (in Industrial Field), MIC; type: cell-based; details: IAM2621, read-out: Minimal Inhibitory Conc. (MIC)
[11] = tested on: Aspergillus terreus PQMD 82 j; test: Antifungal Activity (in Industrial Field), MIC; type: cell-based; details: PQMD82J, read-out: Minimal Inhibitory Conc. (MIC)
Mucor spinescens IAM Mu3 = test: Antifungal Activity (in Industrial Field), MIC; type: cell-based; details: IAMMU3, read-out: Minimal Inhibitory Conc. (MIC)
[12] = tested on: Pullularia pullulans IAM F-24; test: Antifungal Activity (in Industrial Field), MIC; type: cell-based; details: IAMF24; Pullularia pullulans IAM F-24; read-out: Minimal Inhibitory Conc. (MIC)
[13] = tested on: Trichophyton metagrophytes 530324; test: Antifungal Activity (in Medicinal Field), MIC; type: cell-based
[14] = tested on: Colletotrichum lagenarium; test: Antibacterial and Antifungal Activities (in Agricultural Field), MIC; type: cell-based; details: Colletotrichum orbiculare, read-out: Minimal Inhibitory Conc. (MIC)
Botrytis cinerea = test: as above; type: cell-based; details: read-out: Minimal Inhibitory Conc. (MIC)
Pellicularia filamentosa = test: as above; type: cell-based; details: read-out: Minimal Inhibitory Conc. (MIC)
Glomerella cingulata = test: as above; type: cell-based; details: Colletotrichum gloeosporioides, read-out: Minimal Inhibitory Conc. (MIC)
Alternaria kikuchiana = test: as above; type: cell-based; details: read-out: Minimal Inhibitory Conc. (MIC)
[15] = tested on: Xanthomonas campestris pv. oryzae; test: microbe, parasite or virus in culture; type: cell-based; details: read-out: Minimal Inhibitory Conc. (MIC)
[16] = tested on: Fusarium oxysporum f. lycopersici; test: Antibacterial and Antifungal Activities (in Agricultural Field), MIC; type: cell-based; details: read-out: Minimal Inhibitory Conc. (MIC)
Gibberella fujikuroi = test: as above; type: cell-based; details: Fusarium fujikuroi, read-out: Minimal Inhibitory Conc. (MIC)
Cochliobolus miyabeanus = test: as above; type: cell-based; details: Bipolaris oryzae, read-out: Minimal Inhibitory Conc. (MIC)
[17] = tested on: Pseudomonas syringae pv. tabaci; test: as above; type: cell-based; details: read-out: Minimal Inhibitory Conc. (MIC)
Diaporithe citri = test: as above; type: cell-based; details: read-out: Minimal Inhibitory Conc. (MIC)
[18] = tested on: Trichophyton mentagrophytes; test: Reducing culture positive rate of skin slices from infected guinea pigs; type: in vivo, guinea pigs (White Hartly-strain); parameters: concentration or dose not given beside the values; details: after 8 days application, non-treated 100
[19] = tested on: Corynebacterium michiganense; test: Antibacterial and Antifungal Activities (in Agricultural Field), MIC; type: cell-based; details: Clavibacter michiganensis, read-out: Minimal Inhibitory Conc. (MIC)
Erwinia carotovora = test: as above; type: cell-based; details: Pectobacterium carotovorum, read-out: Minimal Inhibitory Conc. (MIC)
[20] = tested on: Trichophyton mentagrophytes; test: Therapeutic experiment on trichophytosis in guinea pigs, visual observation; type: in vivo, guinea pigs (White Hartly-strain); details: 1% preparation, 0.25 ml once per day, 8 consecutive days
Phricularia oryzae = test: Antibacterial and Antifungal Activities (in Agricultural Field), MIC; type: cell-based; details: read-out: Minimal Inhibitory Conc. (MIC)
[21] = tested on: Xanthomonas campestris pv. citri; test: as above; type: cell-based; details: read-out: Minimal Inhibitory Conc. (MIC)
[22] = Candida, GA24, read-out: Minimal Inhibitory Conc. (MIC)
[23] = Trichophyton, 530324, read-out: Minimal Inhibitory Conc. (MIC)
[24] = GA24, Candida alubicans GA-24, read-out: Minimal Inhibitory Conc. (MIC)
[25] = Trichophyton metagrophytes 530324, read-out: Minimal Inhibitory Conc. (MIC)

Row | SMILES | MIC [1] | MIC [2] | MIC [3] | MIC (Candida alubicans GA-24; [22]) | MIC [4] | MIC [5] | MIC [6] | MIC [7] | MIC [8] | MIC [9] | MIC [10] | MIC [11] | MIC (Mucor spinescens IAM Mu3) | MIC [12] | MIC [13, 23] | MIC [14] | MIC (Botrytis cinerea) | MIC (Pellicularia filamentosa) | MIC (Glomerella cingulata) | MIC (Alternaria kikuchiana) | further results
1 | IC#CCn1cncn1 [1-(1'-iodopropyn-3'-yl)-1,2,4-triazole] | 0.78 µg/mL (≈ 3.35 µM) | 3.13 µg/mL (≈ 13.4 µM) | 0.78 µg/mL (≈ 3.35 µM) | 3.12 µg/mL (≈ 13.4 µM) | 0.78 µg/mL (≈ 3.35 µM) | 3.13 µg/mL (≈ 13.4 µM) | 6.25 µg/mL (≈ 26.8 µM) | 3.13 µg/mL (≈ 13.4 µM) | 3.13 µg/mL (≈ 13.4 µM) | 25 µg/mL (≈ 107 µM) | 50 µg/mL (≈ 215 µM) | 0.39 µg/mL (≈ 1.67 µM) | 6.25 µg/mL (≈ 26.8 µM) | 3.13 µg/mL (≈ 13.4 µM) | 1.56 µg/mL (≈ 6.69 µM) | – | – | – | – | – | –
2 | O=[N+]([O-])c1cn(CC#CI)c(Cl)c1Cl [1-(1'-iodopropyn-3'-yl)-2,3-dichloro-4-nitropyrrole] | 0.39 µg/mL (≈ 1.13 µM) | – | 0.39 µg/mL (≈ 1.13 µM) | – | 1.56 µg/mL (≈ 4.52 µM) | 0.78 µg/mL (≈ 2.26 µM) | 0.39 µg/mL (≈ 1.13 µM) | 3.12 µg/mL (≈ 9.05 µM) | 6.25 µg/mL (≈ 18.1 µM) | 1.56 µg/mL (≈ 4.52 µM) | < 0.09 µg/mL | 0.39 µg/mL (≈ 1.13 µM) | 0.39 µg/mL (≈ 1.13 µM) | 6.25 µg/mL (≈ 18.1 µM) | – | 1.56 µg/mL (≈ 4.52 µM) | 0.39 µg/mL (≈ 1.13 µM) | > 50 µg/mL | 0.19 µg/mL (≈ 0.551 µM) | 0.78 µg/mL (≈ 2.26 µM) | MIC (Candida alubicans GA-24; [24]): 0.78 µg/mL (≈ 2.26 µM); MIC [15]: 0.39 µg/mL (≈ 1.13 µM); MIC [16]: 3.12 µg/mL (≈ 9.05 µM); MIC (Gibberella fujikuroi): 1.56 µg/mL (≈ 4.52 µM); MIC (Cochliobolus miyabeanus): 12.5 µg/mL (≈ 36.2 µM); MIC [13, 25]: 0.09 µg/mL (≈ 0.261 µM)
3 | O=[N+]([O-])c1cc(Cl)n(CC#CI)c1 [1-(1'-iodopropyn-3'-yl)-2-chloro-4-nitropyrrole] | – | – | – | – | – | 0.39 µg/mL (≈ 1.26 µM) | 0.39 µg/mL (≈ 1.26 µM) | 3.12 µg/mL (≈ 10 µM) | 1.56 µg/mL (≈ 5.02 µM) | 12.5 µg/mL (≈ 40.3 µM) | 0.19 µg/mL (≈ 0.612 µM) | 0.19 µg/mL (≈ 0.612 µM) | 0.78 µg/mL (≈ 2.51 µM) | 1.56 µg/mL (≈ 5.02 µM) | – | – | – | – | – | – | –
4 | O=[N+]([O-])c1ccn(CC#CI)c1 [1-(1'-iodopropyn-3'-yl)-3-nitropyrrole] | 0.78 µg/mL (≈ 2.83 µM) | – | 0.09 µg/mL (≈ 0.326 µM) | – | 0.09 µg/mL (≈ 0.326 µM) | – | – | – | – | – | – | – | – | – | – | 3.12 µg/mL (≈ 11.3 µM) | 0.78 µg/mL (≈ 2.83 µM) | 50 µg/mL (≈ 181 µM) | 0.78 µg/mL (≈ 2.83 µM) | 1.56 µg/mL (≈ 5.65 µM) | MIC (Candida alubicans GA-24; [24]): 0.78 µg/mL (≈ 2.83 µM); MIC [15]: 0.39 µg/mL (≈ 1.41 µM); MIC [16]: 3.12 µg/mL (≈ 11.3 µM); MIC (Gibberella fujikuroi): 3.12 µg/mL (≈ 11.3 µM); MIC (Cochliobolus miyabeanus): 6.25 µg/mL (≈ 22.6 µM); MIC [13, 25]: 0.19 µg/mL (≈ 0.688 µM)
5 | IC#CCn1cccn1 [1-(1'-iodopropyn-3'-yl)pyrazole] | 0.39 µg/mL (≈ 1.68 µM) | 1.56 µg/mL (≈ 6.72 µM) | 0.78 µg/mL (≈ 3.36 µM) | 3.12 µg/mL (≈ 13.4 µM) | 0.78 µg/mL (≈ 3.36 µM) | 0.78 µg/mL (≈ 3.36 µM) | 1.56 µg/mL (≈ 6.72 µM) | 3.13 µg/mL (≈ 13.5 µM) | 3.13 µg/mL (≈ 13.5 µM) | 12.5 µg/mL (≈ 53.9 µM) | 1.56 µg/mL (≈ 6.72 µM) | 0.78 µg/mL (≈ 3.36 µM) | 1.56 µg/mL (≈ 6.72 µM) | 3.13 µg/mL (≈ 13.5 µM) | 0.39 µg/mL (≈ 1.68 µM) | – | – | – | – | – | –
6 | IC#CCn1cnnn1 [1-(1'-iodopropyn-3'-yl)tetrazole] | 0.78 µg/mL (≈ 3.33 µM) | 3.13 µg/mL (≈ 13.4 µM) | 0.39 µg/mL (≈ 1.67 µM) | 1.56 µg/mL (≈ 6.67 µM) | 0.39 µg/mL (≈ 1.67 µM) | 1.56 µg/mL (≈ 6.67 µM) | 1.56 µg/mL (≈ 6.67 µM) | 0.78 µg/mL (≈ 3.33 µM) | 1.56 µg/mL (≈ 6.67 µM) | 3.13 µg/mL (≈ 13.4 µM) | 12.5 µg/mL (≈ 53.4 µM) | 0.2 µg/mL (≈ 0.855 µM) | 3.13 µg/mL (≈ 13.4 µM) | 1.56 µg/mL (≈ 6.67 µM) | 0.78 µg/mL (≈ 3.33 µM) | – | – | – | – | – | –
7 | O=[N+]([O-])c1ccn(CC(I)=C(I)I)c1 [1-(2',3',3'-triiodoallyl)-3-nitropyrrole] | 0.39 µg/mL (≈ 0.736 µM) | – | 0.09 µg/mL (≈ 0.17 µM) | – | 0.39 µg/mL (≈ 0.736 µM) | – | – | – | – | – | – | – | – | – | – | 0.39 µg/mL (≈ 0.736 µM) | 0.19 µg/mL (≈ 0.359 µM) | 50 µg/mL (≈ 94.4 µM) | 0.39 µg/mL (≈ 0.736 µM) | 0.78 µg/mL (≈ 1.47 µM) | MIC [17]: 6.25 µg/mL (≈ 11.8 µM); MIC (Candida alubicans GA-24; [24]): 0.19 µg/mL (≈ 0.359 µM); MIC [15]: 25 µg/mL (≈ 47.2 µM); MIC (Diaporithe citri): 0.39 µg/mL (≈ 0.736 µM); MIC [16]: 0.78 µg/mL (≈ 1.47 µM); Reducing Culture Positive Rate ([18]; 3 days culture): 16.7%; Reducing Culture Positive Rate ([18]; 5 days culture): 25.0%; Reducing Culture Positive Rate ([18]; 7 days culture): 33.3%; MIC (Gibberella fujikuroi): 0.39 µg/mL (≈ 0.736 µM); MIC [19]: 0.98 µg/mL (≈ 1.85 µM); MIC (Cochliobolus miyabeanus): 12.5 µg/mL (≈ 23.6 µM); MIC (Erwinia carotovora): 6.25 µg/mL (≈ 11.8 µM); Therapeutic Effect: Desquamation [20]: effective; Therapeutic Effect: Thickening [20]: effective; MIC (Phricularia oryzae): 1.56 µg/mL (≈ 2.94 µM); MIC [13, 25]: 0.19 µg/mL (≈ 0.359 µM); MIC [21]: 50 µg/mL (≈ 94.4 µM)
